Assays:
[1] = UV-Vis analysis of disulfide bond stability to heat and hydroxylamine; format: physicochemical; conditions: with and without hydroxylamine solution; room temperature to 90° C., 15 minutes each; FIG. 18-19
Protocol: The solution was heated for 15 minutes at each temperature and allowed to cool to room temp before the spectra were taken. ˜1 mg of DTT was added to the solution to cleave the remaining disulfide bonds.

[2] = UV-Vis detection of chromophore release on heating liposomes (DPPC, DSPE-PEG2000, SATA-DSPE, PDP-PE); format: physicochemical; conditions: negative control without hydroxylamine, heated to 90° C.; FIG. 16
Protocol: To deprotect the thiol group on the liposomes 100 μL of 0.5 M hydroxylamine with 25 mM EDTA pH 7.3 in PBS buffer were added to 50 μL of PBS buffer containing the liposomes. The mixture was gently mixed over an hour. The procedure for deprotection was taken from Pierce.
50 μL of liposomes formed by the second method were diluted into 650 μL of PBS. UV-Vis spectra were taken of PBS as a blank, the liposomes in PBS, and hydroxylamine solution in PBS all at room temperature.
The liposomes were heated to 40 to 90° C. at 10 degree intervals for 10 minutes each, upon cooling to room temperature UV-Vis spectra was taken; the spectra are shown in FIG. 15.
As a negative control, the same procedure was performed on the same concentration of liposomes and PBS without the hydroxylamine solution. After heating the negative control to 90° C. DTT, which serves to cleave any disulfide bonds present, was added to visualize the amount of PDP-PE that is present in the liposomes, as shown in FIG. 16.

Structure (SMILES)	reduction of disulfide on heating [1]	reduction of PDP-PE with only heat [2]
c1ccc(SSc2ccccn2)nc1 [2,2′ dithiodipyridine, 2,2′-dithiodipyridine]	reduction is occurring	–
CCCCCCCCCCCCCCCC(=O)OC[C@H](COP(=O)(O)OCCNC(=O)CCSSc1ccccn1)OC(=O)CCCCCCCCCCCCCCC [PDP-PE, N-[3-(2-Pyridyldithio)propionyl]-1,2-dipalmitoyl-sn-glycero-3-phosphoethanolamine]	–	does not seem to be reduced

Source: patent US20100068260A1, “Methods, Compositions and Device for Directed and Controlled Heating and Release of Agents” (priority 2007, published 2010)
